From patent US9758527B2, “Cyclohexene derivative, preparation method therefor, and pharmaceutical composition for preventing or treating metabolic diseases, containing same as active ingredient” (HYUNDAI PHARM CO., LTD., priority 2014, dated 2017)
Counter-ions that a name gives are not always drawn. Like-named read-outs stand apart in the source and are kept apart here.

Biological target: T1, G protein-coupled receptor 119 (GPR-119) (Mesocricetus auratus, UniProt A0A1U8CD06)
T1 construct: hamster-derived β-cells containing G protein-coupled receptor 119 (GPR-119), HIT-T15 cells; host or cells: HIT-T15 (hamster pancreatic β-cells)
T1 sequence (A0A1U8CD06 1-334): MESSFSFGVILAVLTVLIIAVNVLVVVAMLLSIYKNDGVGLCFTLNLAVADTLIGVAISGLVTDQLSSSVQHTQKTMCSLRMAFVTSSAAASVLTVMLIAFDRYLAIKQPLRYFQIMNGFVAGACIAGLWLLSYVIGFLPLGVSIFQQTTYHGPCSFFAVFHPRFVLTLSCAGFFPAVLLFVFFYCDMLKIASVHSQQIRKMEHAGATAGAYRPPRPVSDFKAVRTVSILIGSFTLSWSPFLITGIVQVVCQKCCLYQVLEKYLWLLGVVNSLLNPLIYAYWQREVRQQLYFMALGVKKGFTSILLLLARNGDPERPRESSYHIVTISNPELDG
Test: Evaluation of cAMP activity in HIT-T15 cells (HTRF cAMP dynamic kit)
Assay type: cell-based, hamster
Settings: cAMP activation
Experimental: To check whether the cyclohexene derivatives according to the present invention activate cyclic adenosine monophosphate (cAMP), experiments were carried out, as follows.
The HIT-T15 cells were plated on a 96-well plate at 60,000 cells per well. On the next day of plating, the cells were treated with a varying concentration of each of the example compounds according to the present invention, and incubated at 37° C. for an hour. In this case, each of the treated compounds was used at six concentrations, ranging from […], to treat the cells.
The cyclic adenosine monophosphate (cAMP) activity was measured according to the manufacturer's instruction using a cAMP dynamic kit commercially available from Cis Bio Inc. (Bedford, Mass.). The cells were lysed, and a level of cAMP was determined by a competitive immunoassay using D2-labeled cAMP and a cryptate-labeled anti-cAMP antibody. Fluorescence was read in Flex Station (Molecular Devices). […] Unlabeled cAMP in the cell lysate competed with the D2-labeled cAMP against the cryptate-labeled antibody. Since a decrease in the measured intensity of the FRET signals represents a level of cAMP in the cells, the cAMP activities of the compounds are calculated as a change in FRET signals by adjusting an amount of dimethyl sulfoxide (DMSO).

[1] = 1 h at 37° C., six concentrations, read-out: EC50

Row | EC50 [1] [nM] | EC50 (read-out: EC50 value) [nM] | Compound
1 | 27 | ≤ 50 | CC(C)c1noc(N2CCC(COc3ccc(C4=CCC(C(=O)N5CCC(O)CC5)CC4)cc3)CC2)n1 (centres unmarked) [Example 182, (4-hydroxypiperidin-1-yl)(4-(4-((1-(3-isopropyl-1,2,4-oxadiazol-5-yl)piperidin-4-yl)methoxy)phenyl)cyclohex-3-enyl)methanone]
2 | 35 | ≤ 50 | CCc1cnc(N2CCC(COc3ccc(C4=CCC(C(=O)N5CCN(C6CC6)CC5)CC4)cc3)CC2)nc1 (centres unmarked) [Example 123, (4-cyclopropylpiperazin-1-yl)(4-(4-((1-(5-ethylpyrimidin-2-yl)piperidin-4-yl)methoxy)phenyl)cyclohex-3-enyl)methanone]
3 | 35 | ≤ 50 | CCO/N=C1/CCN(C(=O)C2CC=C(c3ccc(OCC4CCN(c5ncc(CC)cn5)CC4)cc3)CC2)C1 (centres unmarked) [Example 269, (3-(ethoxyimino)pyrrolidin-1-yl)(4-(4-((1-(5-ethylpyrimidin-2-yl)piperidin-4-yl)methoxy)phenyl)cyclohex-3-enyl)methanone]
4 | 68 |  | CC(C)c1noc(N2CCC(COc3ccc(C4=CCC(C(=O)NCCF)CC4)cc3F)CC2)n1 (centres unmarked) [Example 94, 4-(3-fluoro-4-((1-(3-isopropyl-1,2,4-oxadiazol-5-yl)piperidin-4-yl)methoxy)phenyl)-N-(2-fluoroethyl)cyclohex-3-enecarboxamide]
5 | 14 | ≤ 50 | CC(C)(C)OC(=O)N1CCC(COc2ccc(C3=CCC(C(=O)N4CCC(CO)CC4)CC3)cc2)CC1 (centres unmarked) [Example 226, tert-butyl 4-((4-(4-(4-(hydroxymethyl)piperidine-1-carbonyl)cyclohex-1-enyl)phenoxy)methyl)piperidine-1-carboxylate]
6 | 6.2 | ≤ 50 | CC(C)c1noc(N2CCC(COc3ccc(C4=CCC(C(=O)N5CCSCC5)CC4)cc3)CC2)n1 (centres unmarked) [Example 74, (4-(4-((1-(3-isopropyl-1,2,4-oxadiazol-5-yl)piperidin-4-yl)methoxy)phenyl)cyclohex-3-enyl)(thiomorpholino)methanone]
7 | 130 |  | C[C@@H](O)CNC(=O)C1CC=C(c2ccc(OCC3CCN(C(=O)OC(C)(C)C)CC3)cc2F)CC1 (stereo partly drawn) [Example 126, tert-butyl 4-((3-fluoro-4-(4-((R)-2-hydroxypropylcarbamoyl)cyclohex-1-enyl)phenoxy)methyl)piperidine-1-carboxylate]
8 | 75 |  | CC(C)(C)OC(=O)N1CCC(COc2ccc(C3=CCC(C(=O)NCC(F)F)CC3)c(F)c2)CC1 (centres unmarked) [Example 141, tert-butyl 4-((4-(4-(2,2-difluoroethylcarbamoyl)cyclohex-1-enyl)-3-fluorophenoxy)methyl)piperidine-1-carboxylate]
9 | 120 |  | CC(C)c1noc(N2CCC(COc3ccc(C4=CCC(C(=O)NCCC(=O)N5CCC[C@H]5C#N)CC4)cc3F)CC2)n1 (stereo partly drawn) [Example 140, N-(3-((S)-2-cyanopyrrolidin-1-yl)-3-oxopropyl)-4-(3-fluoro-4-((1-(3-isopropyl-1,2,4-oxadiazol-5-yl)piperidin-4-yl)methoxy)phenyl)cyclohex-3-enecarboxamide]
10 | 27 | ≤ 50 | CCc1cnc(N2CCC(COc3ccc(C4=CCC(C(=O)N5CCCC5)CC4)cc3)CC2)nc1 (centres unmarked) [Example 162, (4-(4-((1-(5-ethylpyrimidin-2-yl)piperidin-4-yl)methoxy)phenyl)cyclohex-3-enyl)(pyrrolidin-1-yl)methanone]
11 | 16 | ≤ 50 | CON(C)C(=O)C1CC=C(c2ccc(OCC3CCN(c4nc(C(C)C)no4)CC3)cc2)CC1 (centres unmarked) [Example 247, 4-(4-((1-(3-isopropyl-1,2,4-oxadiazol-5-yl)piperidin-4-yl)methoxy)phenyl)-N-methoxy-N-methylcyclohex-3-enecarboxamide]
12 | 80 |  | CC(C)c1noc(N2CCC(COc3ccc(C4=CCC(C(=O)NCCO)CC4)cc3F)CC2)n1 (centres unmarked) [Example 120, 4-(3-fluoro-4-((1-(3-isopropyl-1,2,4-oxadiazol-5-yl)piperidin-4-yl)methoxy)phenyl)-N-(2-hydroxyethyl)cyclohex-3-enecarboxamide]
13 | 60 |  | CC(C)(C)OC(=O)N1CCC(COc2ccc(C3=CCC(C(=O)NC4CC4)CC3)c(F)c2)CC1 (centres unmarked) [Example 137, tert-butyl 4-((4-(4-(cyclopropylcarbamoyl)cyclohex-1-enyl)-3-fluorophenoxy)methyl)piperidine-1-carboxylate]
14 | 8 | ≤ 50 | CC(C)(C)OC(=O)N1CCC(COc2ccc(C3=CCC(C(=O)N4CC[C@H](F)C4)CC3)cc2F)CC1 (stereo partly drawn) [Example 57, tert-butyl 4-((2-fluoro-4-(4-((S)-3-fluoropyrrolidine-1-carbonyl)cyclohex-1-enyl)phenoxy)methyl)piperidine-1-carboxylate]
15 | 6 |  | CCc1cnc(N2CCC(COc3ccc(C4=CCC(C(=O)N5CC[C@H](F)C5)CC4)cc3)CC2)nc1 (stereo partly drawn) [Example 161, (4-(4-((1-(5-ethylpyrimidin-2-yl)piperidin-4-yl)methoxy)phenyl)cyclohex-3-enyl)((S)-3-fluoropyrrolidin-1-yl)methanone hydrochloride]
16 | 66 |  | CC(C)c1noc(N2CCC(COc3ccc(C4=CCC(C(=O)NCC(F)F)CC4)cc3)CC2)n1 (centres unmarked) [Example 51, N-(2,2-difluoroethyl)-4-(4-((1-(3-isopropyl-1,2,4-oxadiazol-5-yl)piperidin-4-yl)methoxy)phenyl)cyclohex-3-enecarboxamide]
17 | 45 | ≤ 50 | CC(C)(C)OC(=O)N1CCC(COc2ccc(C3=CCC(C(=O)N4CCOCC4)CC3)cn2)CC1 (centres unmarked) [Example 70, tert-butyl 4-((5-(4-(morpholine-4-carbonyl)cyclohex-1-enyl)pyridin-2-yloxy)methyl)piperidine-1-carboxylate]
18 | 105 |  | CCc1cnc(N2CCC(COc3ccc(C4=CCC(C(=O)NC[C@@H](C)O)CC4)cc3)CC2)nc1 (stereo partly drawn) [Example 30, 4-(4-((1-(5-ethylpyrimidin-2-yl)piperidin-4-yl)methoxy)phenyl)-N-((R)-2-hydroxypropyl)cyclohex-3-enecarboxamide]
19 | 70 |  | C[C@@H](O)CNC(=O)C1CC=C(c2ccc(OCC3CCN(C(=O)OC(C)(C)C)CC3)c(F)c2)CC1 (stereo partly drawn) [Example 62, tert-butyl 4-((2-fluoro-4-(4-((R)-2-hydroxypropylcarbamoyl)cyclohex-1-enyl)phenoxy)methyl)piperidine-1-carboxylate]
20 | 82 |  | CC(C)(C)OC(=O)N1CCC(COc2ccc(C3=CCC(C(=O)N4CC[C@H](O)C4)CC3)cn2)CC1 (stereo partly drawn) [Example 42, tert-butyl 4-((5-(4-((S)-3-hydroxypyrrolidine-1-carbonyl)cyclohex-1-enyl)pyridin-2-yloxy)methyl)piperidine-1-carboxylate]
21 | 90 |  | CC(C)c1noc(N2CCC(COc3ccc(C4=CCC(C(=O)N[C@H](C)CO)CC4)cc3)CC2)n1 (stereo partly drawn) [Example 20, N-((R)-1-hydroxypropan-2-yl)-4-(4-((1-(3-isopropyl-1,2,4-oxadiazol-5-yl)piperidin-4-yl)methoxy)phenyl)cyclohex-3-enecarboxamide]
22 | 27 | ≤ 50 | CC(C)c1noc(N2CCC(COc3ccc(C4=CCC(C(=O)N5CC[C@@H](F)C5)CC4)cc3F)CC2)n1 (stereo partly drawn) [Example 96, (4-(3-fluoro-4-((1-(3-isopropyl-1,2,4-oxadiazol-5-yl)piperidin-4-yl)methoxy)phenyl)cyclohex-3-enyl)((R)-3-fluoropyrrolidin-1-yl)methanone]
23 | 500 |  | CC(C)c1noc(N2CCC(COc3ccc(C4=CCC(C(=O)NC[C@@H](O)CO)CC4)nc3)CC2)n1 (stereo partly drawn) [Example 40, N-((R)-2,3-dihydroxypropyl)-4-(5-((1-(3-isopropyl-1,2,4-oxadiazol-5-yl)piperidin-4-yl)methoxy)pyridin-2-yl)cyclohex-3-enecarboxamide]
24 | 9 | ≤ 50 | CC(C)(CO)CNC(=O)C1CC=C(c2ccc(OCC3CCN(C(=O)OC(C)(C)C)CC3)c(F)c2)CC1 (centres unmarked) [Example 82, tert-butyl 4-((2-fluoro-4-(4-(3-hydroxy-2,2-dimethylpropylcarbamoyl)cyclohex-1-enyl)phenoxy)methyl)piperidine-1-carboxylate]
25 | 36 | ≤ 50 | CCc1cnc(N2CCC(COc3ccc(C4=CCC(C(=O)N5CC[C@H](CO)C5)CC4)cc3)CC2)nc1 (stereo partly drawn) [Example 152, (4-(4-((1-(5-ethylpyrimidin-2-yl)piperidin-4-yl)methoxy)phenyl)cyclohex-3-enyl)((S)-3-(hydroxymethyl)pyrrolidin-1-yl)methanone]
26 | 64 |  | CC(C)c1noc(N2CCC(COc3ccc(C4=CCC(C(=O)NCC(F)(F)F)CC4)cc3F)CC2)n1 (centres unmarked) [Example 92, 4-(3-fluoro-4-((1-(3-isopropyl-1,2,4-oxadiazol-5-yl)piperidin-4-yl)methoxy)phenyl)-N-(2,2,2-trifluoroethyl)cyclohex-3-enecarboxamide]
